Data published in patent US9925166B2, “Methods of treating an overweight or obese subject” (Zafgen, Inc., priority 2008, dated 2018).
Several values for one entry are separate records, joined by “and”; a condition that tells them apart may be missing. Identical values can stand only once.

What was measured:
[1] = system: diet-induced obese mice; assay: Weight loss study in diet-induced obese mice, oral gavage 28 days (Example 2); format: in vivo, C57BL/6NTac mice; settings: for weight loss as a percentage of pre-study weight: 28 days, end of study
Description: The mice in this study were not genetically obese, but prior to and during the study, obesity was induced by a high-fat diet. Twelve week-old C57BL/6NTac mice, maintained on a 60% fat diet prior to and during the study, were separated into six groups, eight animals per group.
Fumagillin was administered to four of the diet-induced obese mice groups by oral gavage as a solution in 10% DMSO, at doses of 1 mg/kg/day, 3 mg/kg/day, 10 mg/kg/day and 30 mg/kg/day respectively, for 28 days. A fifth group received 10% DMSO vehicle-only (control) by oral gavage, and the sixth group received neither vehicle nor fumagillin (naïve). Body weight was measured on day 0 (pre-study) and subsequently on day 3, day 8, day 15, day 22, and day 29 of the study. Daily food consumption was also recorded.

[2] = system: diet-induced obese mice; assay: Very low dose oral and subcutaneous weight loss study in diet-induced obese mice (Examples 3 and 4); format: in vivo, C57BL/6NTac mice
Text: (§1) Mice were divided into two groups, a diet-induced obese group and a lean group. For the diet-induced obese group, fifteen week-old C57BL/6NTac mice, maintained prior to and during the study on a diet containing 60% fat on a kilocalorie basis, were further separated into six groups, eight animals per group. Average body weight of these diet-induced obese mice was 38 g at the start of the study. For the lean group, fifteen week-old C57BLI6NTac mice, maintained on a diet containing 4.3% by weight fat prior to and during the study, were further separated into two groups, eight animals per group. Average body weight of these lean mice was 28 g at the start of the study.
Fumagillin was administered to three of the diet-induced obese mice groups by oral gavage as a solution in 10% DMSO, at doses of 0.1 mg/kg/day, 0.3 mg/kg/day, and 1 mg/kg/day respectively. A fourth diet-induced obese mice group received the 10% DMSO vehicle only by oral gavage. A group of lean mice was administered fumagillin by oral gavage as a solution in 10% DMSO at a dose of 1 mg/kg/day. Treatments were administered daily for 11 days.
as §1, with “A study was undertaken to analyze whether oral administration compared to subcutaneous administration of fumagillin affected weight loss in diet-induced obese mice. Mice” for “Mice”
Fumagillin was administered to three of the diet-induced obese groups by oral gavage as a solution in 10% DMSO, at doses of 0.1 mg/kg/day, 0.3 mg/kg/day, and 1 mg/kg/day respectively. A fourth diet-induced obese group received the 10% DMSO vehicle-only by oral gavage. A fifth diet-induced obese group received fumagillin at a 1 mg/kg/day dose by subcutaneous injection of a solution in 10% DMSO. A sixth diet-induced obese group received the 10% DMSO vehicle only by subcutaneous injection. A group of lean mice was administered fumagillin by oral gavage as a solution in 10% DMSO at a dose of 1 mg/kg/day.
Another group of lean mice was administered fumagillin by subcutaneous injection of a solution in 10% DMSO at a dose of 1 mg/kg/day. Treatments were administered daily for 14 days.

[3] = system: diet-induced obese mice; assay: 47-day weight and food intake study in diet-induced obese mice (Example 5); format: in vivo, C57BL/6NTac mice; settings: 1 mg/kg/day oral gavage
Description: Mice were divided into two groups, a diet-induced obese group and a lean group (control). For the diet-induced obese group, C57BL/6NTac mice maintained prior to and during the study on a diet containing 60% fat on a kilocalorie basis were further divided into two groups, fifteen mice per group. Average body weight of these diet-induced obese mice was 40 g at the start of the study. […] Daily food consumption was also recorded.
Fumagillin was administered to one of the diet-induced obese mice groups by oral gavage as a solution in 10% DMSO, at dose of 1 mg/kg/day, for 47 days. The other diet-induced obese mice group and the lean mice group were not administered anything.

[4] = system: diet-induced obese mice; assay: Percent fat change and lean mass change by NMR in diet-induced obese mice, 28 days (Example 6); format: in vivo, C57BL6J mice
Description: Mice were first divided into three groups, a control group, a diet-induced obese group, and a lean group. For the diet-induced obese group, C57BL6J mice maintained prior to and during the study on a diet containing 40% fat on a kilocalorie basis were further divided into two groups. For the lean group, C57BL6J mice were maintained on a diet containing 4% by weight fat prior to and during the study. Each of the groups was subsequently divided as described below.
The lean group was administered 1% DMSO vehicle for 28 days. Percent fat change and percent lean mass change from baseline were determined by NMR after 28 days.

[5] = Plasma concentration after oral administration in a non-enterically coated capsule (Example 7); format: in vivo, Sprague-Dawley rats; settings: 30 mg/kg capsule oral
Description: A study was undertaken to investigate absorption of fumagillin orally administered in a capsule. Five male Sprague-Dawley rats were fasted, and were then each orally administered a non-enterically coated capsule containing 30 mg/kg of fumagillin. […] (graphically illustrated as 0.17), 20 min. (graphically illustrated as 0.33), 30 min. […]

[6] = humans, 30 mg/day to 60 mg/day; Molina et al., Seneca; cited from earlier work
[7] = oral gavage, weight loss, not identified, concluded

## CO[C@@H]1[C@H](OC(=O)/C=C/C=C/C=C/C=C/C(=O)O)CC[C@]2(CO2)[C@H]1[C@@]1(C)O[C@@H]1CC=C(C)C [fumagillin]
[1]; 1 mg/kg and 3 mg/kg oral
  neutrophil counts compared to vehicle-only mice: decreased
[1]; 1 mg/kg/day oral gavage
  weight loss as a percentage of pre-study weight: 15%
[1]; 3 mg/kg/day oral gavage
  weight loss as a percentage of pre-study weight: 18%
[1]; 10 mg/kg and 30 mg/kg oral
  neutrophil counts compared to vehicle-only mice: increased
[1]; 10 mg/kg/day oral gavage
  weight loss as a percentage of pre-study weight: 21%
[1]; 30 mg/kg/day oral gavage
  weight loss as a percentage of pre-study weight: 33%
[1]; 30 mg/kg/day oral, 30 day period
  food consumption among dose groups: consuming the least amount of food
[1]; 1-30 mg/kg/day oral, 30 day period
  food consumption vs vehicle-only and naive mice: consumed less food
[1]; fumagillin dose groups, oral
  leukocytes, particularly lymphocytes (hematology): decrease
  platelets: No decrease
[1]; fumagillin treatment, oral
  cholesterol levels: reductions
  serum glucose levels: reductions
[1]; [7]
  non-effective dose: below 1 mg/kg/day
[2]; 0.1 mg/kg/day oral gavage, end of study (14 days)
  weight loss as a percentage of pre-study weight: 7%
[2]; 0.3 mg/kg/day oral gavage, end of study (14 days)
  weight loss as a percentage of pre-study weight: 11%
[2]; 1 mg/kg/day oral gavage, end of study (14 days)
  weight loss as a percentage of pre-study weight: 12%
[2]; 1 mg/kg/day subcutaneous injection, 14 days, end of study
  weight loss as a percentage of pre-study weight: 7%
[2]; [7]
  non-effective dose: below 0.1 mg/kg/day
[3]; 47 days, weight plateaued at weight of lean mice
  effect on lean body mass: without substantial reduction of lean body mass
[3]; day seventeen (from 40 g on day 1)
  average weight: 32 g
[3]; maintained through day 47
  average weight: approximately 32 g
[3]; throughout 47 days
  amount of food consumed: 2.2 g/day
[4]; 0.3 mg/kg/day oral gavage
  weight loss: lost significant amounts of weight
[4]; 1.0 mg/kg/day oral gavage
  weight loss: losing a greater amount of weight
[4]; 0.3 or 1.0 mg/kg/day oral gavage
  loss of lean body mass (NMR): without resulting in substantial loss of lean body mass
[5]; male rats 1-5, time point 0 hr
  ZGN-201 Conc. in Rat Plasma, individual animals: BQL (BQL: 1 ng/mL)
[5]; male rats 1-5, time point 0.17 hr
  ZGN-201 Conc. in Rat Plasma, individual animals: BQL (BQL: 1 ng/mL)
[5]; male rats 1-5, time point 0.33 hr, listed as ZGN-201
  ZGN-201 Conc. in Rat Plasma, individual animals: 5.3 ng/mL and 1.9 ng/mL and 1.6 ng/mL and 1.8 ng/mL and 5.2 ng/mL
[5]; male rats 1-5, time point 0.5 hr, listed as ZGN-201
  ZGN-201 Conc. in Rat Plasma, individual animals: 14.3 ng/mL and 4.5 ng/mL and 3.6 ng/mL and 3 ng/mL and 11.4 ng/mL
[5]; male rats 1-5, time point 1 hr, listed as ZGN-201
  ZGN-201 Conc. in Rat Plasma, individual animals: 36.1 ng/mL and 14.5 ng/mL and 8.9 ng/mL and 3.6 ng/mL and 117.9 ng/mL
[5]; male rats 1-5, time point 2 hr, listed as ZGN-201
  ZGN-201 Conc. in Rat Plasma, individual animals: 81.2 ng/mL and 98.2 ng/mL and 125.4 ng/mL and 9.5 ng/mL and 156.4 ng/mL
[5]; male rats 1-5, time point 8 hr, listed as ZGN-201
  ZGN-201 Conc. in Rat Plasma, individual animals: 36.6 ng/mL and 47.1 ng/mL and 141.3 ng/mL and 31.6 ng/mL and 116.8 ng/mL
[5]; rats
  absorption through the stomach: poorly absorbed through the stomach
  time after administration at which absorption is first observed: 20 min
  time of peak absorption after administration: approximately 2 hrs
[5]; rats, time point 2
  maximal concentration absorbed into the blood: approximately 100 ng/ml
[5]; male, Sprague-Dawley, rat, plasma, oral, 30 mg/kg, male rats, time point 0.33 hr, read-out: ZGN-201 Conc. in Rat Plasma, Mean
  concentration at 0.33 hr: 3 ng/mL
[5]; male, Sprague-Dawley, rat, plasma, oral, 30 mg/kg, male rats, time point 0.5 hr, read-out: ZGN-201 Conc. in Rat Plasma, Mean
  concentration at 0.5 hr: 7 ng/mL
[5]; male, Sprague-Dawley, rat, plasma, oral, 30 mg/kg, male rats, time point 1 hr, read-out: ZGN-201 Conc. in Rat Plasma, Mean
  concentration at 1 hr: 36 ng/mL
[5]; male, Sprague-Dawley, rat, plasma, oral, 30 mg/kg, male rats, time point 2 hr, read-out: ZGN-201 Conc. in Rat Plasma, Mean
  concentration at 2 hr: 94 ng/mL
[5]; male, Sprague-Dawley, rat, plasma, oral, 30 mg/kg, male rats, time point 8 hr, read-out: ZGN-201 Conc. in Rat Plasma, Mean
  concentration at 8 hr: 75 ng/mL
[6]
  blood disorders developed by patients: thrombocytopenia, leukopenia, and neutropenia
